Source: ChEMBL document CHEMBL5149981, “Carboxylesterase Notum Is a Druggable Target to Modulate Wnt Signaling” (J Med Chem, 2021)

How the values were obtained:
[1] = target: T1, Palmitoleoyl-protein carboxylesterase NOTUM (Homo sapiens, UniProt Q6P988)
T1 sequence (Q6P988 whole entry): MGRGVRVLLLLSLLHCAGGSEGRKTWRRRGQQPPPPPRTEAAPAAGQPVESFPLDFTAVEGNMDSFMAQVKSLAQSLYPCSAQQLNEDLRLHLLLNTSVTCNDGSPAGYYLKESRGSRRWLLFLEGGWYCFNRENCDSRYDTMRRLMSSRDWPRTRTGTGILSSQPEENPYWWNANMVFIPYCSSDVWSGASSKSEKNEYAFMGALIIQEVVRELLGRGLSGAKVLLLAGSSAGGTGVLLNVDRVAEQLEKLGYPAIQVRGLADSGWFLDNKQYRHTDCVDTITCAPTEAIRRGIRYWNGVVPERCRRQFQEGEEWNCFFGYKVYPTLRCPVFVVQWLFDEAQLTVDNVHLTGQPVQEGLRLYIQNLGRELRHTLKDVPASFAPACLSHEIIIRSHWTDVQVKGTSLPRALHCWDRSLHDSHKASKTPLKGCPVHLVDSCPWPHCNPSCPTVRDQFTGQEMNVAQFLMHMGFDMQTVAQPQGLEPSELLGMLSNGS

[2] = target: T1, Palmitoleoyl-protein carboxylesterase NOTUM; remark: listed apart in the source
[3] = target: T1, Palmitoleoyl-protein carboxylesterase NOTUM; remark: listed apart in the source

EC50 [1]	IC50 [2]	SMILES	IC50 [3]
0.157 µM	0.002 µM	Cc1sc2ncnc(SCC(=O)O)c2c1Cl	
		Cc1ccccc1OCC(=O)Nc1cccnc1	33 µM
	93.6 µM	CC(=O)NCCc1c[nH]c2ccc(O)cc12 [ACETYLSEROTONIN]	
